# Source: patent US4450269A, “Mono-5-substituted-3-chloro-4H-1,2,6-thiadiazin-4-one antifungal agents” (FMC Corporation, priority 1980, dated 1984)
# What was measured:
# [1] = tested on: Uromyces phaseoli; assay: whole plant or invertebrate; conditions: foliar, 24 h, read-out: Percent Disease Control, curative, bean rust
# [2] = tested on: Cladosporium cucumerinum; assay: Mycelial growth test; assay type: cell-based; conditions: CC; for inhibition at 5 ppm / inhibition at 10 ppm / inhibition at 40 ppm / inhibition at 20 ppm: Cladosporium cucumerinum, read-out: Percent Fungus Growth Inhibition; for inhibition at 5 ppm / inhibition at 10 ppm / inhibition at 40 ppm: 72 h; for inhibition at 20 ppm: CC20, 72 h
# Excerpt: |CC = Cladosporium cucumerinum
SMILES,pest or weed control at 150 ppm [1],inhibition at 5 ppm [2],inhibition at 10 ppm [2],inhibition at 40 ppm ([2]; 40 ppm),inhibition at 20 ppm [2],"Percent Fungus Growth Inhibition ([2]; 40 ppm, 72 hours)"
"CS(=O)(=O)c1ccc(Oc2nsnc(Cl)c2=O)cc1 [Compound 41, 3-chloro-5-[(4-methylsulfonyl)phenoxy]-4H--1,2,6-thiadiazin-4-one]",0%,10%,32%,65%,48%,–
"CCOC(=O)c1ccc(Oc2nsnc(Cl)c2=O)cc1 [Compound 7, 3-chloro-5-(4-ethoxycarbonylphenoxy)-4H--1,2,6-thiadiazin-4-one]",0%,9%,36%,100%,100%,–
"O=C(Nc1ccccc1)Nc1ccc(Oc2nsnc(Cl)c2=O)cc1 [Compound 29, 3-chloro-5-[4-(3-phenylureido)-phenoxy]-4H--1,2,6-thiadiazin-4-one]",0%,14%,11%,31%,14%,–
"O=c1c(Cl)nsnc1Oc1ccc(F)cc1 [Compound 11, 3-chloro-5-(4-fluorophenoxy)-4H--1,2,6-thiadiazin-4-one]",0%,27%,64%,100%,100%,–
"CCCCOc1ccc(Oc2nsnc(Cl)c2=O)cc1 [Compound 6, 3-chloro-5-(4-n-butoxyphenoxy)-4H--1,2,6-thiadiazin-4-one]",90%,0%,0%,45%,0%,–
"Cc1ccc(Oc2nsnc(Cl)c2=O)c(Br)c1 [Compound 57, 3-[(2-bromo-4-methyl)-phenoxy]-5-chloro-4H--1,2,6-thiadiazin-4-one]",0%,42%,56%,78%,78%,–
"Cc1cc(Cl)ccc1Oc1nsnc(Cl)c1=O [Compound 55, 3-chloro-5-(4-chloro-2-methylphenoxy)-4H--1,2,6-thiadiazin-4-one]",0%,0%,11%,28%,22%,–
"CC(=O)c1ccc(Oc2nsnc(Cl)c2=O)cc1 [Compound 47, 3-(4-acetylphenoxy)-5-chloro-4H--1,2,6-thiadiazin-4-one]",0%,27%,38%,77%,46%,–
"Cc1cccc(Oc2nsnc(Cl)c2=O)c1 [Compound 21, 3-chloro-5-(3-methylphenoxy)-4H--1,2,6-thiadiazin-4-one]",0%,38%,38%,85%,69%,–
"O=C(Nc1ccccc1)Oc1ccc(Oc2nsnc(Cl)c2=O)cc1 [Compound 37, 3-chloro-5-[4-(phenylaminocarbonyloxy)phenoxy]-4H-1,2,6,-thiadiazin-4-one]",0%,23%,29%,52%,35%,–
"Cc1cc(Oc2nsnc(Cl)c2=O)ccc1Cl [Compound 54, 3-chloro-5-(4-chloro-3-methylphenoxy)-4H--1,2,6-thiadiazin-4-one]",0%,14%,28%,50%,33%,–
"Cc1cccc(C)c1Oc1nsnc(Cl)c1=O [Compound 24, 3-chloro-5-(2,6-dimethylphenoxy)-4H--1,2,6-thiadiazin-4-one]",0%,46%,65%,100%,100%,–
"CC(=O)c1ccccc1Oc1nsnc(Cl)c1=O [Compound 49, 3-(2-acetylphenoxy)-5-chloro-4H--1,2,6-thiadiazin-4-one]",0%,3%,17%,64%,33%,–
"O=c1c(Cl)nsnc1Oc1cccc(Cl)c1Cl [Compound 19, 3-chloro-5-(2,3-dichlorophenoxy)-4H--1,2,6-thiadiazin-4-one]",100%,100%,100%,100%,100%,–
"O=c1c(Cl)nsnc1Oc1ccc(Cl)cc1Cl [Compound 17, 3-chloro-5-(2,4-dichlorophenoxy)-4H--1,2,6-thiadiazin-4-one]",100%,100%,100%,100%,100%,–
"O=c1c(Cl)nsnc1Oc1cc(Cl)cc(Cl)c1 [Compound 20, 3-chloro-5-(3,5-dichlorophenoxy)-4H--1,2,6-thiadiazin-4-one]",0%,100%,100%,100%,100%,–
"Nc1ccc(Oc2nsnc(Cl)c2=O)cc1 [Compound 26, 5-(4-aminophenoxy)-3-chloro-4H--1,2,6-thiadiazin-4-one]",0%,37%,49%,–,49%,77%
"O=c1c(Cl)nsnc1Oc1ccc([N+](=O)[O-])cc1 [Compound 9, 3-chloro-5-(4-nitrophenoxy)-4H--1,2,6-thiadiazin-4-one]",0%,54%,75%,100%,92%,–
"Cc1cc(Oc2nsnc(Cl)c2=O)cc(C)c1Br [Compound 60, 3-[(4-bromo-3,5-dimethyl)-phenoxy]-5-chloro-4H--1,2,6-thiadiazin-4-one]",0%,33%,36%,47%,44%,–
"O=c1c(Cl)nsnc1Oc1ccc(Br)cc1 [Compound 15, 3-chloro-5-(4-bromophenoxy)-4H--1,2,6-thiadiazin-4-one]",90%,9%,55%,100%,82%,–
